Test results as given in publication PMC5448077, “Development of an orally available inhibitor of CLK1 for skipping a mutated dystrophin exon in Duchenne muscular dystrophy” (Scientific Reports, 2017).

Experiments:
Assay in all cases: biochemical
[1] = target: T1, ACK (Homo sapiens, UniProt Q07912)
T1 construct: gene TNK2
Outline: (§1)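 Human kinases phosphorylating kinase-specific synthetic peptides, assayed by mobility shift (MSA) or IMAP fluorescence polarization, in 20 mM HEPES pH 7.5, 0.01% Triton X-100, 2 mM DTT with substrate/ATP-metal. Reactions ran 1 or 5 h at room temperature; activity = P/(P + S) from product and substrate peak heights.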

[2] = target: T2, PKACα (Homo sapiens, UniProt P17612)
T2 construct: gene PRKACA
Outline: as §1

[3] = target: FGFR2 (Homo sapiens, UniProt P21802)
Outline: as §1

[4] = target: PIM3 (Homo sapiens, UniProt Q86V86)
Outline: as §1

[5] = target: ALK(R1275Q) (Homo sapiens, UniProt Q9UM73, R1275Q)
Outline: as §1

[6] = target: T3, PKCβ2 (Homo sapiens, UniProt P05771)
T3 construct: gene PRKCB; isoform beta2
Outline: as §1

[7] = target: T4, PGK (Homo sapiens, UniProt Q13976)
T4 construct: gene PRKG1
Outline: as §1

[8] = target: MARK2 (Homo sapiens, UniProt Q7KZI7)
Outline: as §1

[9] = target: JAK1 (Homo sapiens, UniProt P23458)
Outline: as §1

[10] = target: EPHA1 (Homo sapiens, UniProt P21709)
Outline: as §1

[11] = target: TSSK2 (Homo sapiens, UniProt Q96PF2)
Outline: as §1

[12] = target: T5, Erk2 (Homo sapiens, UniProt P28482)
T5 construct: gene MAPK1
Outline: as §1

[13] = target: T6, p70S6K (Homo sapiens, UniProt P23443)
T6 construct: gene RPS6KB1
Outline: as §1

[14] = target: T7, PDK1 (Homo sapiens, UniProt O15530)
T7 construct: gene PDPK1
Outline: as §1

[15] = target: CDK6/CycD3 (Homo sapiens, UniProt Q00534)
Outline: as §1

[16] = target: FGFR4 (Homo sapiens, UniProt P22455)
Outline: as §1

[17] = target: RET(Y791F) (Homo sapiens, UniProt P07949, Y791F)
Outline: as §1

[18] = target: DYRK1A (Homo sapiens, UniProt Q13627)
Outline: as §1

[19] = target: T8, JNK2 (Homo sapiens, UniProt P45984)
T8 construct: gene MAPK9
Outline: as §1

[20] = target: EGFR (Homo sapiens, UniProt P00533)
Outline: as §1

[21] = target: ALK(F1174L) (Homo sapiens, UniProt Q9UM73, F1174L)
Outline: as §1

[22] = target: EPHA5 (Homo sapiens, UniProt P54756)
Outline: as §1

[23] = target: T9, AurC (Homo sapiens, UniProt Q9UQB9)
T9 construct: gene AURKC
Outline: as §1

[24] = target: SGK2 (Homo sapiens, UniProt Q9HBY8)
Outline: as §1

[25] = target: ROCK1 (Homo sapiens, UniProt Q13464)
Outline: as §1

[26] = target: T10, Erk1 (Homo sapiens, UniProt P27361)
T10 construct: gene MAPK3
Outline: as §1

[27] = target: NEK2 (Homo sapiens, UniProt P51955)
Outline: as §1

[28] = target: T11, AMPKα1/β1/γ1 (Homo sapiens, UniProt Q13131)
T11 construct: gene PRKAA1
Outline: as §1

[29] = target: T12, AurA/TPX2 (Homo sapiens, UniProt O14965)
T12 construct: gene AURKA
Outline: as §1

[30] = target: T13, p70S6Kβ (Homo sapiens, UniProt Q9UBS0)
T13 construct: gene RPS6KB2
Outline: as §1

[31] = target: PIK3CA/PIK3R1 (Homo sapiens, UniProt P42336)
Outline: as §1

Chain of SGK2 (Q9HBY8 whole entry): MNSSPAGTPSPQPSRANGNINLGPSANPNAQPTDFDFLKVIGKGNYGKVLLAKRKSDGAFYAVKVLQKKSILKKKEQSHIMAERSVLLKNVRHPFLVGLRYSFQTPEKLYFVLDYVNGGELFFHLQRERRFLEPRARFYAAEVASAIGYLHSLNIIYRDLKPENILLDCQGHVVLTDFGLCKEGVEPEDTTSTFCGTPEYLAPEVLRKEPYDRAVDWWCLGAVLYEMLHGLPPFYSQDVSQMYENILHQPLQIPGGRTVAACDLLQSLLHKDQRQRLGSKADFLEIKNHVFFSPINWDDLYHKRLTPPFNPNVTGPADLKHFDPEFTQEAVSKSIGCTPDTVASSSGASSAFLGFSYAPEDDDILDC
T11 sequence (Q13131 whole entry): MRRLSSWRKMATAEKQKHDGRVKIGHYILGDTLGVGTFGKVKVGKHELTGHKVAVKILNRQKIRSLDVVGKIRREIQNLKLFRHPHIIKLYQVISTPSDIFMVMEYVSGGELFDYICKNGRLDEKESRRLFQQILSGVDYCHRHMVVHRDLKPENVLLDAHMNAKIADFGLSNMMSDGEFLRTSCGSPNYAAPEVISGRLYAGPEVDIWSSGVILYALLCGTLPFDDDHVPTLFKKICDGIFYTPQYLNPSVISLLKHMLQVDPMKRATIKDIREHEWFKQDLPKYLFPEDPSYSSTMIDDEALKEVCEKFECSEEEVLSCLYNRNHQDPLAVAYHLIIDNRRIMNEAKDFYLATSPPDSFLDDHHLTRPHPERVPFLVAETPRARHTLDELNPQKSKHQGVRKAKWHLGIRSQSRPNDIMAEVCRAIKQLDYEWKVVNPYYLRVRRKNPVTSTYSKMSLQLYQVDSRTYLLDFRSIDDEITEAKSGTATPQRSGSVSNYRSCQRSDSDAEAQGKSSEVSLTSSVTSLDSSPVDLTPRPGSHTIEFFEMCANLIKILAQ
T11 sequence (P54619 whole entry partner): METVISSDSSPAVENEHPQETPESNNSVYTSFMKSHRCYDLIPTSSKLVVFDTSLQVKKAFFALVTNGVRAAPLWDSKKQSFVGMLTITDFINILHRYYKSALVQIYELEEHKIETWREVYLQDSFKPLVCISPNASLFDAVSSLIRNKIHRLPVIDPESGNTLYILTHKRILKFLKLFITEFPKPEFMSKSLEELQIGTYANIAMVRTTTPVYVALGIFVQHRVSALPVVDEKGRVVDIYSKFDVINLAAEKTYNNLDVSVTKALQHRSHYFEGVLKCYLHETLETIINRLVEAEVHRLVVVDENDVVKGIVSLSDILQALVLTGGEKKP
T11 sequence (Q9Y478 whole entry partner): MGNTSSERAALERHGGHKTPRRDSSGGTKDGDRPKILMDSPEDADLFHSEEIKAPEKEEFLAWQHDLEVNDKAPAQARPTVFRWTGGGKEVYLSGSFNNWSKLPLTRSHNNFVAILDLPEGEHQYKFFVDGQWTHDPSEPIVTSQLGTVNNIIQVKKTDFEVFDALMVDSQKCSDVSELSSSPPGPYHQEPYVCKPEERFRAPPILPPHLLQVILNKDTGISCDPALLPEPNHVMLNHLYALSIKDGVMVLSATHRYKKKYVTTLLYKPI
T10 sequence (P27361 whole entry): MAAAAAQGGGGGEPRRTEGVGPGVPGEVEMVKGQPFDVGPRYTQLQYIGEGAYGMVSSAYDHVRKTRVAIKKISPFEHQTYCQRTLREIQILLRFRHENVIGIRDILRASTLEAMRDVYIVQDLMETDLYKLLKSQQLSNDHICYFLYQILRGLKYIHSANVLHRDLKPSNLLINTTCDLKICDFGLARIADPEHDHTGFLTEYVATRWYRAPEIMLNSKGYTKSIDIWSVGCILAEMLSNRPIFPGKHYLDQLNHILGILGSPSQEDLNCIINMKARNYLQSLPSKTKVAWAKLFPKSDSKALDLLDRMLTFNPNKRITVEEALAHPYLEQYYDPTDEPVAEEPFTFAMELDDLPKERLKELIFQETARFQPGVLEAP
T7 sequence (O15530 whole entry): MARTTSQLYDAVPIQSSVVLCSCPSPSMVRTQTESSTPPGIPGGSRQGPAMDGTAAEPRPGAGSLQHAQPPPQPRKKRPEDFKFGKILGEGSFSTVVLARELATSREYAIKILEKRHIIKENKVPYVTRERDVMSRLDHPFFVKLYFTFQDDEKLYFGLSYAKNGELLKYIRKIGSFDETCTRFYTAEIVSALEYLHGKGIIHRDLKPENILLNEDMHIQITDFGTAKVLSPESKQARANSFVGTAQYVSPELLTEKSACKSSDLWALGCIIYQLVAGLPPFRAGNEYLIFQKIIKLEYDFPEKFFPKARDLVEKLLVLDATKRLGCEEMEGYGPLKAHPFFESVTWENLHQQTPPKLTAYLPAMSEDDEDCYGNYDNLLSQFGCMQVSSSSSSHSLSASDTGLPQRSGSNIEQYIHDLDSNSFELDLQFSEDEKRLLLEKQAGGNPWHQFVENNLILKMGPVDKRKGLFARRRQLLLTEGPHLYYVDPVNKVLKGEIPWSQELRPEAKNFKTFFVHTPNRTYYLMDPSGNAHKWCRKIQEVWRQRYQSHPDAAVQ
T8 sequence (P45984 whole entry): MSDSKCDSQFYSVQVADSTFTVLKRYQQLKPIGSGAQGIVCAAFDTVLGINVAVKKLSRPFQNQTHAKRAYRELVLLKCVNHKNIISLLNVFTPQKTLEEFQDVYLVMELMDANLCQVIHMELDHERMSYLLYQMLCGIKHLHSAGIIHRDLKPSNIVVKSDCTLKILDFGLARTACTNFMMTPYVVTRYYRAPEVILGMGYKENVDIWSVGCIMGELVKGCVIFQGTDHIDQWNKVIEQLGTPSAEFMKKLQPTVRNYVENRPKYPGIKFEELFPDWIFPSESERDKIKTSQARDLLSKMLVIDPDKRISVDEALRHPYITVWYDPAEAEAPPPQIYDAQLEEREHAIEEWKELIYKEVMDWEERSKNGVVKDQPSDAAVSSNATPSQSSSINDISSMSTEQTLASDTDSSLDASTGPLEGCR
Chain of PIK3CA/PIK3R1 (P42336 whole entry): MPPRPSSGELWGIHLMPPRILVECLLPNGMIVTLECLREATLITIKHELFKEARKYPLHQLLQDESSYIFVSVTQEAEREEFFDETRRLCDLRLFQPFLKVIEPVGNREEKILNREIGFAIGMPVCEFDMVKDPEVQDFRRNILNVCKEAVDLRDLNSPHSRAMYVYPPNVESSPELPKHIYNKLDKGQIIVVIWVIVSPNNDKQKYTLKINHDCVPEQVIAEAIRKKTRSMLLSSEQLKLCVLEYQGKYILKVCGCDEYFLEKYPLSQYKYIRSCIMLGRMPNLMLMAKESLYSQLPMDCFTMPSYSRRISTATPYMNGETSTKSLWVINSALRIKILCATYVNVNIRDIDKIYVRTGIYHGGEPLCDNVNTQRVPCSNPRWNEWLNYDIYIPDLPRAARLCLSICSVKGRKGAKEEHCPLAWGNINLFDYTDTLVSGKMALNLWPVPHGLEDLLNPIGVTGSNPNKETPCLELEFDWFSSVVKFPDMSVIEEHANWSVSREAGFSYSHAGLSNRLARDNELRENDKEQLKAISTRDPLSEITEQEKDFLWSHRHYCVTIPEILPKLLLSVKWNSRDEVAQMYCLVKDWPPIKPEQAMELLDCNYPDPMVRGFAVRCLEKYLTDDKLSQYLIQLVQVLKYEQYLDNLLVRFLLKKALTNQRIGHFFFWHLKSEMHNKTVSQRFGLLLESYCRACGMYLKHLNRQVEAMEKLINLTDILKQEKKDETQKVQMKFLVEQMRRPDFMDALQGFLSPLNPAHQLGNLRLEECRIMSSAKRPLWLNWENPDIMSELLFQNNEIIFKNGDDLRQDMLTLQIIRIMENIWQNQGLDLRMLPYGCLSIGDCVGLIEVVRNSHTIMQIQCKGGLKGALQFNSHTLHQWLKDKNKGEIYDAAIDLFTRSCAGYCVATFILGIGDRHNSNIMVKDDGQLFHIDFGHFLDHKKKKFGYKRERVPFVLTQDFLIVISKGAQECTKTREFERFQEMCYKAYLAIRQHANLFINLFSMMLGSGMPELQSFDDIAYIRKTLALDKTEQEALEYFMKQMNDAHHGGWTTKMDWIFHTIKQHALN
Chain of PIK3CA/PIK3R1 (P27986 whole entry partner): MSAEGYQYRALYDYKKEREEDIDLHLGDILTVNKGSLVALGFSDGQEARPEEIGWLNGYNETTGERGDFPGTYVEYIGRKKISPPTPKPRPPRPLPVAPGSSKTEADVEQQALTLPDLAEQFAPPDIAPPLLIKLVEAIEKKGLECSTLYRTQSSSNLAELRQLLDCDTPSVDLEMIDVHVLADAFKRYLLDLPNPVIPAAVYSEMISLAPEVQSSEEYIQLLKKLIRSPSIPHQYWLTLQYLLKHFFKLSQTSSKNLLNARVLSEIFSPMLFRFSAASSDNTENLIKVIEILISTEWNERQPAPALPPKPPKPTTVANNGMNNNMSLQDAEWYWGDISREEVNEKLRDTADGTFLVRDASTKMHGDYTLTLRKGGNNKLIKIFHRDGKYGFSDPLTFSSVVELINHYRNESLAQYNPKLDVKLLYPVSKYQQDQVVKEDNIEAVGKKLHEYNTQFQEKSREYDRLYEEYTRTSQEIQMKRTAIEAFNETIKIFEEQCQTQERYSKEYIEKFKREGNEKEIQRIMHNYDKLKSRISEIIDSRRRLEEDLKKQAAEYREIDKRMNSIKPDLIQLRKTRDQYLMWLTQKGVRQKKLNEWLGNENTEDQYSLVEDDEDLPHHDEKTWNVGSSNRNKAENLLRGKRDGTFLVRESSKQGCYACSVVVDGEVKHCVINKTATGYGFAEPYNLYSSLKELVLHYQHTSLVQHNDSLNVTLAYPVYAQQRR
T9 sequence (Q9UQB9 whole entry): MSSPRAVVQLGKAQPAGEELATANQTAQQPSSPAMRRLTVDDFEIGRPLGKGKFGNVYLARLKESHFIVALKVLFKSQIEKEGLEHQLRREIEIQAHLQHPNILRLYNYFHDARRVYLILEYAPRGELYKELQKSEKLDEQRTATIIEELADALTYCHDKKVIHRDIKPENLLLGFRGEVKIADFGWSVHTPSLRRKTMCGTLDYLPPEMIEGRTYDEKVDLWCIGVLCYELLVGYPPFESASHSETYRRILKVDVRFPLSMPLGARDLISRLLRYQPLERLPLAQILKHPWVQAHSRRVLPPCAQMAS

Q: How did the inhibition at 1 µM [1] turn out when `c1cc(-c2ccc3[nH]ncc3c2)ccn1` [TG693, 5-(4-pyridinyl)-1H-indazole] was run?
A: The inhibition at 1 µM was -1.1%.

Q: What about the inhibition at 1 µM [2] of the same compound?
A: The inhibition at 1 µM was 9.5%.

Q: What about the inhibition at 1 µM [3] of the same compound?
A: The inhibition at 1 µM was 1.7%.

Q: What about the inhibition at 1 µM [4] of the same compound?
A: The inhibition at 1 µM was 6.6%.

Q: And the inhibition at 1 µM [5]?
A: Its inhibition at 1 µM is -7.6%.

Q: What about the inhibition at 1 µM [6] of the same compound?
A: Its inhibition at 1 µM is -11.8%.

Q: What about the inhibition at 1 µM [7] of the same compound?
A: Its inhibition at 1 µM is 11%.

Q: What about the inhibition at 1 µM [8] of the same compound?
A: Its inhibition at 1 µM is 20.3%.

Q: And the inhibition at 1 µM [9]?
A: The inhibition at 1 µM was -0.7%.

Q: And the inhibition at 1 µM [10]?
A: Its inhibition at 1 µM is -2.8%.

Q: What about the inhibition at 1 µM [11] of the same compound?
A: The inhibition at 1 µM was -0.1%.

Q: What about the inhibition at 1 µM [12] of the same compound?
A: Its inhibition at 1 µM is -5.8%.

Q: What about the inhibition at 1 µM [13] of the same compound?
A: The inhibition at 1 µM was 46%.

Q: And the inhibition at 1 µM [14]?
A: Its inhibition at 1 µM is -3.9%.

Q: What about the inhibition at 1 µM [15] of the same compound?
A: The inhibition at 1 µM was 9.1%.

Q: What about the inhibition at 1 µM [16] of the same compound?
A: Its inhibition at 1 µM is 4.3%.

Q: And the inhibition at 1 µM [17]?
A: Its inhibition at 1 µM is 3%.

Q: What about the inhibition at 1 µM [18] of the same compound?
A: The inhibition at 1 µM was 84.3%.

Q: What about the inhibition at 1 µM [19] of the same compound?
A: The inhibition at 1 µM was -5.9%.

Q: What about the inhibition at 1 µM [20] of the same compound?
A: The inhibition at 1 µM was -10.7%.

Q: What about the inhibition at 1 µM [21] of the same compound?
A: Its inhibition at 1 µM is -6.9%.

Q: And the inhibition at 1 µM [22]?
A: Its inhibition at 1 µM is -7.5%.

Q: And the inhibition at 1 µM [23]?
A: The inhibition at 1 µM was 2.5%.

Q: And the inhibition at 1 µM [24]?
A: Its inhibition at 1 µM is -5.4%.

Q: And the inhibition at 1 µM [25]?
A: Its inhibition at 1 µM is 27.6%.

Q: What about the inhibition at 1 µM [26] of the same compound?
A: The inhibition at 1 µM was 1.4%.

Q: What about the inhibition at 1 µM [27] of the same compound?
A: The inhibition at 1 µM was -11.9%.

Q: And the inhibition at 1 µM [28]?
A: Its inhibition at 1 µM is -6.5%.

Q: And the inhibition at 1 µM [29]?
A: Its inhibition at 1 µM is 8.5%.

Q: And the inhibition at 1 µM [30]?
A: Its inhibition at 1 µM is 18.7%.

Q: And the inhibition at 1 µM [31]?
A: Its inhibition at 1 µM is 36.8%.
